The source of these data is ChEMBL document CHEMBL4321885, “Biomimetic Macrocyclic Inhibitors of Human Cathepsin D: Structure-Activity Relationship and Binding Mode Analysis” (J Med Chem, 2020).

SMILES strings stand for the structures. Active and inactive are the calls of the source. The rule behind the calls is not given here.

Test [1] concerns the target T1, Renin (Homo sapiens) (UniProt P00797).
T1 sequence (whole entry): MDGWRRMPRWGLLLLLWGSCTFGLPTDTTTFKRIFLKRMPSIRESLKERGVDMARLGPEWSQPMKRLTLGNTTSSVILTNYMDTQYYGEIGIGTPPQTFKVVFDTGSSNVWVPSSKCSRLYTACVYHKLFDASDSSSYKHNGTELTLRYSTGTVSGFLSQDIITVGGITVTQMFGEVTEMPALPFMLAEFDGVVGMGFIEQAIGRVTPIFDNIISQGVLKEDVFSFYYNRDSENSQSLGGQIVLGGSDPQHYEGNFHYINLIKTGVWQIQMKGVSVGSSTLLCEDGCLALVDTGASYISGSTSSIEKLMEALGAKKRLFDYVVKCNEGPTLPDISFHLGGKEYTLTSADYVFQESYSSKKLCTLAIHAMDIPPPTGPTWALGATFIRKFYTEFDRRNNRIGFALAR
The test is described as follows: Inhibition of recombinant human N-terminal FLAG-tagged renin (67 to 406 residues) expressed in HEK cells at 5 uM using Arg-Glu(EDANS)-Ile-His-Pro-Phe-His-Leu-Val-Ile-His-Thr-Lys(Dabcyl)-Arg as substrate preincubated for 10 mins followed by substrate addition and measured by FRET assay.

The next test has as its target Cathepsin D (Homo sapiens, UniProt P07339). Description: Inhibition of human placenta CatD using Abz-Lys-Pro-Ala-Glu-Phe-Nph-Ala-Leu as substrate preincubated for 10 mins followed by substrate addition and measured by FRET assay.
The test system of a further test is Ixodes ricinus. The test is described as follows: Inhibition of Ixodes ricinus CatD expressed in Escherichia coli BL21(DE3) at 50 nM using Abz-Lys-Pro-Ala-Glu-Phe-Nph-Ala-Leu as substrate preincubated for 10 mins followed by substrate addition and measured by FRET assay.
Test [2] concerns the target Saccharopepsin (Saccharomyces cerevisiae S288c) (UniProt P07267). Description: Inhibition of Baker's yeast proteinase A at 50 nM using Abz-Lys-Pro-Ala-Glu-Phe-Nph-Ala-Leu as substrate preincubated for 10 mins followed by substrate addition and measured by FRET assay.
For test [3], the target named is Beta-secretase 1 (Homo sapiens) (UniProt P56817). Description: Inhibition of recombinant human C-terminal 10His-tagged BACE1 expressed in mouse NS0 cells at 5 uM using Mca-Ser-Glu-Val-Asn-Leu-Asp-Ala-Glu-Phe-Arg-Lys(Dnp)-Arg-Arg as substrate preincubated for 10 mins followed by substrate addition and measured by FRET assay.
Test [4] addresses Protease (Human immunodeficiency virus 1) (UniProt Q9YQ12). The test is described as follows: Inhibition of HIV1 protease at 50 nM using Abz-Tyr-Ile-Nle-Nph-Gln-Arg as substrate preincubated for 10 mins followed by substrate addition and measured by FRET assay.
The species named for another test is Sus scrofa. Description: Inhibition of porcine pepsin at 50 nM using Abz-Lys-Pro-Ala-Glu-Phe-Nph-Ala-Leu as substrate preincubated for 10 mins followed by substrate addition and measured by FRET assay.
In test [5] the target is Beta-secretase 1 (Homo sapiens) (UniProt P56817). The test is described as follows: Inhibition of recombinant human C-terminal 10His-tagged BACE1 expressed in mouse NS0 cells at 50 nM using Mca-Ser-Glu-Val-Asn-Leu-Asp-Ala-Glu-Phe-Arg-Lys(Dnp)-Arg-Arg as substrate preincubated for 10 mins followed by substrate addition and measured by FRET assay.
For test [6], the target named is Protease (Human immunodeficiency virus 1) (UniProt Q9YQ12). The test is described as follows: Inhibition of HIV1 protease at 5 uM using Abz-Tyr-Ile-Nle-Nph-Gln-Arg as substrate preincubated for 10 mins followed by substrate addition and measured by FRET assay.
Test [7] concerns the target T1, Renin (Homo sapiens). Description: Inhibition of recombinant human N-terminal FLAG-tagged renin (67 to 406 residues) expressed in HEK cells at 50 nM using Arg-Glu(EDANS)-Ile-His-Pro-Phe-His-Leu-Val-Ile-His-Thr-Lys(Dabcyl)-Arg as substrate preincubated for 10 mins followed by substrate addition and measured by FRET assay.

Chain of Saccharopepsin (Saccharomyces cerevisiae S288c) (P07267 whole entry): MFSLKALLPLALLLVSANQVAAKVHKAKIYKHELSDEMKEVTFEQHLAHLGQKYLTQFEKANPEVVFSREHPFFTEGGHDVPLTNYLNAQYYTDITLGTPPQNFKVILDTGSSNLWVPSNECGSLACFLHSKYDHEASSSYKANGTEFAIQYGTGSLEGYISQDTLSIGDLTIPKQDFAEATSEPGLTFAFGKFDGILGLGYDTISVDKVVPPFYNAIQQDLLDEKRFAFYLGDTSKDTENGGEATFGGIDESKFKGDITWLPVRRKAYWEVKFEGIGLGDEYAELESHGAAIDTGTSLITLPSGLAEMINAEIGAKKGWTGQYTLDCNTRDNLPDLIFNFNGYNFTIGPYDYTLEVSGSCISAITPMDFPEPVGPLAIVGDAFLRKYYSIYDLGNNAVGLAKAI
Chain of Protease (Human immunodeficiency virus 1) (Q9YQ12 as listed by the source): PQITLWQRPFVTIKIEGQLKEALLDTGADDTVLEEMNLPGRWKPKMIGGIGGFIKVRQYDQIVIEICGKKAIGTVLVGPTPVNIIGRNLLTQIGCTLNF
Chain of Beta-secretase 1 (Homo sapiens) (P56817 whole entry): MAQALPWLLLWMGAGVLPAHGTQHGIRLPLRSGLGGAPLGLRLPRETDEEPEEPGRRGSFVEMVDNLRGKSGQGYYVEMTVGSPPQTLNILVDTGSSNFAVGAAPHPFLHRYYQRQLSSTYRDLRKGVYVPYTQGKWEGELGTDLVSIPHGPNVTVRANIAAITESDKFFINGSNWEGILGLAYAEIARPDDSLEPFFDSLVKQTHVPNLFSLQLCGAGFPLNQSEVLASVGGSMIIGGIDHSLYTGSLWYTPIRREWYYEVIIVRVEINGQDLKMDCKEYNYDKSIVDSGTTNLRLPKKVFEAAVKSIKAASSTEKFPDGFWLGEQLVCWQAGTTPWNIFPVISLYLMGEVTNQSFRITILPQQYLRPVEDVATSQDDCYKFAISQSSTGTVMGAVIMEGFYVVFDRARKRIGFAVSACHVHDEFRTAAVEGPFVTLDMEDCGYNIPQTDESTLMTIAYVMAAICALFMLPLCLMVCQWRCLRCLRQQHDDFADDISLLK
Chain of Cathepsin D (P07339 65-162 limits assumed): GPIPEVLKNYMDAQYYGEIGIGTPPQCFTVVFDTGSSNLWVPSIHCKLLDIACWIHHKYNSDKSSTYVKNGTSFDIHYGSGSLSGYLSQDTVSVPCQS
Chain of Cathepsin D (P07339 169-412 limits assumed): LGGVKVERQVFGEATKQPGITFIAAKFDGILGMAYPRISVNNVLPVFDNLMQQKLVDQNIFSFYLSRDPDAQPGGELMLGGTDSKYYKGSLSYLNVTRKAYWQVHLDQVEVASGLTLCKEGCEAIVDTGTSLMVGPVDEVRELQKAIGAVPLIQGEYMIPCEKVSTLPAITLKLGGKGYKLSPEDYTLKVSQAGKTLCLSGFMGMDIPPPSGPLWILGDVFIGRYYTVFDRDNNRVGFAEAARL

`O=C1C[C@H](O)[C@H](Cc2ccccc2)NC(=O)CCCCCCCCCCCNC(=O)[C@H](c2ccccc2)N1`: the inhibition entry (on Renin (Homo sapiens) [1]; in the test on Ixodes ricinus; in test [2]; in test [3]; in the test filed under Sus scrofa; in test [6]) was “Active” each time. Moreover, the IC50 against Cathepsin D came to 27 nM. The inhibition entry (in test [4]; in test [5]; on Renin (Homo sapiens) [7]) was “inactive” in each case.
As for `CC(C)[C@@H]1NC(=O)C[C@H](O)[C@H](Cc2c[nH]c3ccccc23)NC(=O)CCCCCCCCCCCNC1=O`, the inhibition entry (on Renin (Homo sapiens) [1]; with Ixodes ricinus; in [2]; in test [3]; in the test filed under Sus scrofa; in test [6]) was “Active” throughout. On Cathepsin D, this compound gave an IC50 of 190 nM. The inhibition result (in [4]; in test [5]; on Renin (Homo sapiens) [7]) was “inactive” throughout.
For `CC(C)[C@@H]1NC(=O)C[C@H](O)[C@H](CC2CCCCC2)NC(=O)CCCCCCCCCCCNC1=O`, the inhibition result (on Renin (Homo sapiens) [1]; with Ixodes ricinus; in [2]; in test [3]; in the test listed under Sus scrofa; in test [6]) was “Active” in each case. On Cathepsin D, the midpoint of inhibition, the IC50, lay at 9 nM. The inhibition entry (in test [4]; in test [5]; on Renin (Homo sapiens) [7]) was “inactive” throughout.
On to `CC[C@@H](C)[C@@H]1NC(=O)C[C@H](O)[C@H](Cc2ccccc2)NC(=O)CCCCCCCCCCCNC1=O`, for which the inhibition entry (at Renin (Homo sapiens) [1]; in the test on Ixodes ricinus; in test [2]; in test [3]; in the test listed under Sus scrofa; in test [6]) was “Active” each time. Besides, it took 3.8 nM to reach half-maximal inhibition at Cathepsin D (IC50). For the same compound, the inhibition entry (in test [4]; in test [5]; at Renin (Homo sapiens) [7]) was “inactive” each time.
For the compound `O=C1C[C@H](O)[C@H](Cc2ccccc2)NC(=O)CCCCCCCCCCCNC(=O)[C@H](Cc2ccccc2)N1`, the inhibition result (at Renin (Homo sapiens) [1]; in the test with Ixodes ricinus; in [2]; in test [3]; in the test listed under Sus scrofa; in test [6]) was “Active” throughout. Moreover, half-maximal inhibition against Cathepsin D (IC50) required 15 nM. Besides, the inhibition entry (in test [4]; in [5]; on Renin (Homo sapiens) [7]) was “inactive” throughout.
As for `CC(C)[C@@H]1NC(=O)C[C@H](O)[C@H](Cc2ccccc2)NC(=O)CCCCCCCCCCCCCNC1=O`, the inhibition entry (at Renin (Homo sapiens) [1]; in the test with Ixodes ricinus; in test [2]; in [3]; in the test filed under Sus scrofa; in [6]) was “Active” each time. Moreover, at Cathepsin D, half-maximal inhibition (IC50) required 11 nM. Besides, the inhibition entry (in test [4]; in test [5]; at Renin (Homo sapiens) [7]) was “inactive” in each case.
In the case of `CC(C)[C@@H]1NC(=O)C[C@H](O)[C@H](Cc2ccccc2)NC(=O)CCCCCCCCCCCCCCNC1=O`, the inhibition entry (at Renin (Homo sapiens) [1]; in the test on Ixodes ricinus; in test [2]; in [3]; in test [6]) was “Active” throughout. Moreover, inhibition at Cathepsin D was half-maximal at 32 nM (IC50). For the same compound, the inhibition entry (in test [4]; in test [5]; on Renin (Homo sapiens) [7]) was “inactive” throughout.
For `CC(C)[C@@H]1NC(=O)C[C@H](O)[C@H](Cc2cscn2)NC(=O)CCCCCCCCCCCNC1=O`, the inhibition result (at Renin (Homo sapiens) [1]; in the test on Ixodes ricinus; in test [2]; in test [3]; in test [6]) was “Active” in each case. Further, on Cathepsin D, the IC50 was found to be 600 nM. Further, the inhibition result (in [4]; in test [5]; on Renin (Homo sapiens) [7]) was “inactive” throughout.
With `CC(C)[C@@H]1NC(=O)C[C@H](O)[C@H](Cc2ccc3ccccc3c2)NC(=O)CCCCCCCCCCCNC1=O`, the inhibition entry (at Renin (Homo sapiens) [1]; with Ixodes ricinus; in [2]; in test [3]; in test [6]) was “Active” each time. Also, the IC50 on Cathepsin D was found to be 0.6 nM. Also, the inhibition entry (in [4]; in test [5]; at Renin (Homo sapiens) [7]) was “inactive” in each case.
As to `CC(C)[C@@H]1NC(=O)C[C@H](O)[C@H](CS)NC(=O)CCCCCCCCCCCNC1=O`, the inhibition entry (on Renin (Homo sapiens) [1]; in the test on Ixodes ricinus; in [2]; in test [3]; in [6]) was “Active” in each case. In addition, at Cathepsin D, the IC50 was 340 nM. In addition, the inhibition result (in test [4]; in [5]; on Renin (Homo sapiens) [7]) was “inactive” in each case.
`CC(=O)NCCCC[C@@H]1NC(=O)C[C@H](O)[C@H](Cc2ccccc2)NC(=O)CCCCCCCCCCCNC1=O`: the inhibition result (at Renin (Homo sapiens) [1]; in the test on Ixodes ricinus; in test [2]; in [3]; in the test filed under Sus scrofa; in test [6]) was “Active” each time. Also, the IC50 on Cathepsin D is 16 nM. The inhibition result (in [4]; in [5]; at Renin (Homo sapiens) [7]) was “inactive” in each case.
For the compound `CC(C)[C@@H]1NC(=O)C[C@H](O)[C@H](Cc2ccc(F)cc2)NC(=O)CCCCCCCCCCCNC1=O`, the inhibition result (at Renin (Homo sapiens) [1]; in the test with Ixodes ricinus; in test [2]; in [3]; in test [6]) was “Active” each time. On Cathepsin D, this compound had an IC50 of 4.7 nM. Besides, the inhibition entry (in test [4]; in test [5]; at Renin (Homo sapiens) [7]) was “inactive” throughout.
Take `CC(C)C[C@@H]1NC(=O)CCCCCCCCCCCNC(=O)[C@H](C)NC(=O)C[C@@H]1O`: the inhibition entry (on Renin (Homo sapiens) [1]; in the test with Ixodes ricinus; in test [2]; in test [3]; in [6]) was “Active” throughout. The compound further came in with an IC50 at Cathepsin D of 310 nM. Also, the inhibition entry (in test [4]; in test [5]; on Renin (Homo sapiens) [7]) was “inactive” in each case.
Regarding `CC(C)[C@@H]1NC(=O)C[C@H](O)[C@H](Cc2ccccc2)NC(=O)CCCCCCCCCCCNC1=O`, the inhibition entry (on Renin (Homo sapiens) [1]; in the test with Ixodes ricinus; in test [2]; in test [3]; in test [6]) was “Active” in each case. Moreover, on Cathepsin D, the half-maximal inhibitory concentration (IC50) came out at 5.8 nM. The inhibition entry (in test [4]; in [5]; on Renin (Homo sapiens) [7]) was “inactive” throughout.
